Where a name gives a salt, the structure may show the parent alone. Read-outs that look alike come from different tables or passages of the source.
Assays:
rat primary hepatocytes [1] = tested on: rat primary hepatocytes
HepG2 cells [2] = details: cited from earlier work; for IC50: read-out: MMP assays IC50 (µM), qHTS-HepG2
HepG2 cells [3] = test: cells; details: Homo sapiens; for IC50: HepG2, read-out: MMP assays IC50 (µM) HepG2; for Emax: HepG2, read-out: MMP assays efficacy (%) HepG2
rat primary hepatocytes [4] = test: MMP assay in rat primary hepatocytes; details: for IC50: read-out: MMP assays IC50 (µM) Rat Hepatocytes

Structure (SMILES) | MMP assays efficacy (%) Rat Hepatocytes (rat primary hepatocytes [1]) | MMP assays efficacy (%) qHTS-HepG2 (HepG2 cells [2]) [%] | IC50 (HepG2 cells [2]) [µM] | IC50 (HepG2 cells [3]) [µM] | Emax (HepG2 cells [3]) [%] | IC50 (rat primary hepatocytes [4]; Rattus norvegicus, Hepatocyte) [µM] | MMP assays IC50 (µM) Rat Hepatocytes (rat primary hepatocytes [4]) | IC50 (rat primary hepatocytes [4]) [µM]
CC(=O)Oc1ccc(C2(c3ccc(OC(C)=O)cc3)C(=O)Nc3ccccc32)cc1 [Oxyphenisatin acetate] | -71±28% | -63±8 | 5.49 ± 4.6 | 17.3 | 118 | 20.6 ± 1.68 | – | –
OC1(c2ccc(Cl)c(C(F)(F)F)c2)CCN(CCCC(c2ccc(F)cc2)c2ccc(F)cc2)CC1 [Penfluridol] | -64±25% | -88±15 | 33.5 | 27.5 | 68 | 23.2 ± 6.57 | – | –
Oc1c(Br)c(Br)c(Br)c(Br)c1Br [Pentabromophenol] | -93±13% | -104±8 | 3.46 ± 0.99 | 7.94 | 106 | 4.98 ± 2.48 | – | –
Oc1c(Cl)c(Cl)c(Cl)c(Cl)c1Cl [Pentachlorophenol] | -119±31% | -97±20 | 3.09 ± 0.6 | 8.9 | 99 | 4.17 ± 0.75 | – | –
NS(=O)(=O)C(F)(F)C(F)(F)C(F)(F)C(F)(F)C(F)(F)C(F)(F)C(F)(F)C(F)(F)F [Perfluorooctanesulfonamide] | -118±45% | -94±15 | 2.43 ± 0.81 | 2.51 | 101 | 1.47 ± 0.1 | – | –
COC(=O)Nc1cccc(OC(=O)Nc2cccc(C)c2)c1 [Phenmedipham] | -95±20% | -101±10 | 4.41 ± 2.02 | 7.08 | 107 | 19.4 ± 9.11 | – | –
O=C1OC(c2ccc(O)cc2)(c2ccc(O)cc2)c2ccccc21 [Phenolphthalein] | -98±24% | -103±24 | 42.8 ± 2.74 | 25.1 | 132 | 39.5 ± 16.9 | – | –
CC(COc1ccccc1)N(CCCl)Cc1ccccc1 (centres unmarked) [Phenoxybenzamine hydrochloride] | inactive | -99±7 | 48.8 ± 9.17 | 35.5 | 63 | – | inactive | –
S=C=Nc1ccccc1 [Phenyl isothiocyanate] | inactive | -103±16 | 43 ± 14.8 | 35.5 | 134 | – | inactive | –
O=C(CCc1ccc(O)cc1)c1c(O)cc(O)cc1O [Phloretin] | -74±26% | -107±12 | 4.26 ± 1.22 | 11.2 | 100 | 10.6 ± 4.98 | – | –
COc1cccc2c1C(=O)c1c(O)c3c(c(O)c1C2=O)C[C@@](O)(C(=O)CO)C[C@@H]3O[C@H]1C[C@H](N)[C@H](O[C@@H]2CCCCO2)[C@H](C)O1 [Pirarubicin] | -39±8% | -68±19 | 0.6 ± 0.46 | 0.69 | 53 | 0.03 | – | –
CN1C(C(=O)Nc2ccccn2)=C(O)c2ccccc2S1(=O)=O [Piroxicam] | -84±3% | -109±18 | 8.21 ± 1.71 | 5.88 | 103 | 4.79 ± 1.53 | – | –
CCCN(CCC)c1c([N+](=O)[O-])cc(C(F)(F)F)c(N)c1[N+](=O)[O-] [Prodiamine] | -95±8% | -85±11 | 4.84 ± 0.56 | 8.91 | 93 | 25.4 ± 11.7 | – | –
CCCSP(=O)(OCC)Oc1ccc(Br)cc1Cl (centres unmarked) [Profenofos] | -61±47% | -92±20 | 2.54 ± 1.84 | 6.15 | 84 | 13.2 ± 3.19 | – | –
CCCN(CC1CC1)c1c([N+](=O)[O-])cc(C(F)(F)F)cc1[N+](=O)[O-] [Profluralin] | -37±10% | -76±20 | 21.7 ± 8.04 | 39.8 | 58 | 25.1 ± 35.4 | – | –
CCCOC(=O)c1ccc(O)cc1 [Propylparaben] | inactive | -99±4 | 38.6 ± 1.67 | 35.5 | 91 | – | inactive | –
C[C@@H]1O[C@@H](O[C@@H]2C=C3CC[C@@H]4[C@H](CC[C@]5(C)[C@@H](c6ccc(=O)oc6)CC[C@]45O)[C@@]3(C)CC2)[C@H](O)[C@H](O)[C@H]1O [Proscillaridin] | inactive | -72±4 | 0.09 ± 0.02 | 0.066 | 86 | – | inactive | –

Structure (SMILES) | MMP assays efficacy (%) Rat Hepatocytes (rat primary hepatocytes [1]) | MMP assays efficacy (%) qHTS-HepG2 (HepG2 cells [2]) [%] | IC50 (HepG2 cells [2]) [µM] | IC50 (HepG2 cells [3]) [µM] | Emax (HepG2 cells [3]) [%] | IC50 (rat primary hepatocytes [4]; Rattus norvegicus, Hepatocyte) [µM] | MMP assays IC50 (µM) Rat Hepatocytes (rat primary hepatocytes [4]) | IC50 (rat primary hepatocytes [4]) [µM]
COC(=O)N(OC)c1ccccc1COc1ccn(-c2ccc(Cl)cc2)n1 [Pyraclostrobin] | -121±32% | -116±2 | 6.35 ± 1.92 | 1.26 | 118 | 9.04 ± 1.89 | – | –
CCCCCCCCSC(=O)Oc1cc(Cl)nnc1-c1ccccc1 [Pyridate] | -59±19% | -97±17 | 33.1 ± 4.58 | 35.5 | 44 | 50.5 ± 8.18 | – | –
O=c1c(O)c(-c2ccc(O)c(O)c2)oc2cc(O)cc(O)c12 [Quercetin] | -62±28% | -94±8 | 2.69 ± 2.26 | 3.16 | 96 | – | – | 15.1 ± 6.79
Oc1ccc(/C=C/c2cc(O)cc(O)c2)cc1 [Resveratrol] | inactive | -66±11 | 1.6 ± 0.43 | 3.71 | 33 | – | inactive | –
Cc1cc2nc3c(=O)[nH]c(=O)nc-3n(C[C@H](O)[C@H](O)[C@H](O)CO)c2cc1C [Riboflavin] | -97±58% | -113±7 | 7.02 ± 1.78 | 11.2 | 86 | 31.3 ± 8.72 | – | –
Cc1cc(C)c(/C=C2\C(=O)Nc3ccccc32)[nH]1 [SU-5416] | -83±12% | -116±2 | 12.5 ± 1.78 | 13.8 | 115 | 11 ± 1.78 | – | –
O=C(Nc1ccccc1)c1ccccc1O [Salicylanilide] | -91±5% | -125±11 | 3.71 ± 1.27 | 3.98 | 101 | 29.1 ± 12.2 | – | –
CC1CCCCC1NC(=O)Nc1ccccc1 (centres unmarked) [Siduron] | -48±7% | -73±13 | 41.6 ± 21.1 | 35.5 | 89 | 43.9 ± 17.4 | – | –
CO[C@H]1C[C@@H]2CC[C@@H](C)[C@@](O)(O2)C(=O)C(=O)N2CCCC[C@H]2C(=O)O[C@H]([C@H](C)C[C@@H]2CC[C@@H](O)[C@H](OC)C2)CC(=O)[C@H](C)/C=C(\C)[C@@H](O)[C@@H](OC)C(=O)[C@H](C)C[C@H](C)/C=C/C=C/C=C/1C [Sirolimus] | -61±8% | -95±3 | 20.1 ± 2.07 | 17.3 | 95 | 20.6 ± 1.68 | – | –
Oc1c(Cl)cc(Cl)cc1Sc1cc(Cl)cc(Cl)c1O [Sodium bithionolate] | inactive | -123±11 | 0.91 ± 0.78 | 0.89 | 116 | – | inactive | –
CC(=O)CC(c1ccccc1)c1c(O)c2ccccc2oc1=O (centres unmarked) [Sodium warfarin] | -77±32% | -95±22 | 38.6 ± 12.8 | 35.5 | 65 | 35.5 | – | –
CN(C)C(=S)SSC(=S)N(C)C [THIRAM] | -96±85% | -57±29 | – | 24.5 | 66 | 16.5 ± 20.3 | – | –
CC1(C)CCC(C)(C)c2cc(NC(=O)c3ccc(C(=O)O)cc3)ccc21 [Tamibarotene] | -75±57% | -128±10 | 25.7 ± 1.05 | 13.8 | 95 | 9.06 ± 6.66 | – | –
CCOc1ccccc1OCCN[C@H](C)Cc1ccc(OC)c(S(N)(=O)=O)c1 [Tamsulosin hydrochloride] | -45±27% | -70±8 | 27.2 ± 2.92 | 30.8 | 80 | 25.1 ± 8.04 | – | –
NC(=O)N1C(=O)/C(=C(\O)c2cccs2)c2cc(Cl)ccc21 [Tenidap] | -96±13% | -111±5 | 12.5 ± 1.19 | 15.8 | 102 | 21.1 ± 7.88 | – | –
CN1C(C(=O)Nc2ccccn2)=C(O)c2sccc2S1(=O)=O [Tenoxicam] | -65±17% | -83±17 | 8.36 ± 1.07 | 6.6 | 69 | 4.23 ± 3.79 | – | –
O=S(=O)(c1ccc(Cl)cc1)c1cc(Cl)c(Cl)cc1Cl [Tetradifon] | -77±25% | -98±2 | 15.3 ± 7.43 | 17.8 | 96 | 12.1 ± 6.57 | – | –

From article PMC6112376, “Comprehensive Analyses and Prioritization of Tox21 10K Chemicals Affecting Mitochondrial Function by in-Depth Mechanistic Studies” (Environmental Health Perspectives, 2018)
